The source of these data is patent publication US11234960B2, “Compositions and methods for improving mitochondrial function and treating neurodegenerative diseases and cognitive disorders” (Amazentis SA, priority 2010, dated 2022).

Molecules are shown by their SMILES.

Common to all, as to format: in vivo
Assay [1] deals with maternally separated mice. As to the kind of experiment: Morris water maze in early-life stress mice. Conditions: early-life stressed mice, 90 mg/kg/day (FIG. 45). On the procedure: At postnatal day 1, pups were culled to have 6 pups per mother. From postnatal day 1 to 14, unpredictable maternal separation (MS) of a period of 3 hours daily was carried out. Maternal separation was performed at random times (from 8 am to 2 pm) to avoid the habituation of the mother to the procedure. The protocol consisted of removing pups from their mother to another cage at room temperature for a 3 hour period, after which the pups were returned to their original nest. These groups are denoted as early-life stress in the figures. A control group of dam/pups was left undisturbed and is denoted in the figures as normal.
One week after maternal separation mice were separated into two groups. One control group received the standard mouse chow diet (Untreated), while the other group received the ellagitannin punicalagin admixed into the food and designed to deliver a dose of 90 mg/kg/day to the mice. Treatment with the diet began 1 week after the termination of the maternal separation treatment. […]
The Morris water maze behavioral assay was employed to assess the cognitive impact of maternal separation. In this assay, cognitive learning is measured by the ability of a mouse to locate a hidden platform in a pool of opaque water. […] Escape latency to reach the platform was measured by a video tracking system.

A further assay concerns normal mice. Description: Rotarod assay in normal mice. The conditions noted are these: 90 mg/kg/day in diet for 3 months, four trials (FIG. 48). On the procedure: Beginning at 3 months of age, mice were fed either a standard control diet such as AIN-93G or a diet containing punicalagin to deliver a dose of 90 mg/kg/day for a period of 3 months.
To examine the effect of pomegranate derived compounds on muscle performance and motor skills, mice were tested on the rotarod behavioral assay. The rotarod apparatus consists of a rod with a diameter of 2 cm with 5 compartments, 5 cm wide. A mouse is placed on a rotating rod which is started at an initial speed of 5 rpm. The rod speed is gradually accelerated at a rate of 8 rpm/min. The latency to fall was measured with a cutoff time of 300 seconds. Mice were tested for four trials. The latency to fall is a measure of the muscle performance and motor skills of the mice, with a better performance reflected by a longer latency to fall. Both control untreated and punicalagin-treated mice were tested. […] Punicaligin-treated mice were able to remain on the rotarod for a longer time and at higher speeds compared to untreated mice during sequential trial periods (FIG. 48).
(The rotarod test checks motor coordination on a turning rod.)

Assay [2] concerns aged C. elegans (wild-type Bristol N2). As to the kind of experiment: Oxygen consumption (Seahorse XF24) in aged C. elegans. Conditions: 10-day-old worms, 30 μM urolithin A in 0.1% DMSO, 30 minute period (FIGS. 25A, 25B). On the procedure:
C. elegans strains were cultured at 20° C. on nematode growth media (NGM) agar plates seeded with E. coli strain OP50. Strain used was wild-type Bristol N2 provided by the Caenorhabditis Genetics Center (University of Minnesota). Urolithin A was dissolved in DMSO. Animals were exposed to compounds from eggs on plates seeded with live OP50 bacteria. Control plates were prepared with the corresponding concentration of DMSO (0.1%).
Measurement of oxygen consumption is a direct indicator of mitochondrial activity. The effect of urolithin A on mitochondrial activity in aged C. elegans (10 days old) was assessed by treating C. elegans with urolithin A for 10 days of adulthood, at which time oxygen consumption was measured using the Seahorse XF24 equipment (Seahorse Bioscience Inc., North Billerica, Mass.). 250 ten-day-old C. elegans were used per condition. […] Worms were transferred into 24-well standard Seahorse plates (#100777-004) (50 worms per well) and oxygen consumption was measured. The basal oxygen consumption of the worms was first measured over 30 minutes at 5 minute intervals (0 min, 5 min, 15 min, 20 min, 25 min and 30 min) with 5 replicates per interval. Respiration rates were normalized to the exact number of worms per well determined after the completion of the experiment using a stereomicroscope. […]

The next assay concerns C. elegans strain SJ4103. As to the kind of experiment: Mitochondrial GFP reporter in muscle of C. elegans strain SJ4103. The conditions noted are these: 50 μM from eggs, GFP monitored after one day of adulthood (FIG. 26). On the procedure:
C. elegans strains were cultured at 20° C. on nematode growth media agar plates seeded with HT115 bacteria and containing 50 μM urolithin A or a corresponding concentration of DMSO as a control. […]. The strains used were the SJ4103 (zcIs14[myo-3::GFP(mit)]), which is a stable transgenic line expressing a mitochondrially localized green fluorescent protein (GFP) with a cleavable mitochondrial import signal peptide under the control of the specific body wall muscle promoter myo-3. GFP expression and quantification was carried out according to the protocol previously described (Durieux et al., 2011). Worms were treated with 50 μM urolithin A from eggs, and GFP was monitored after one day of adulthood. Fluorimetric assays were performed using a Victor X4 multilabel plate reader (Perkin-Elmer Life Science). Eighty worms were picked at random (20 worms per well of a black-walled 96-well plate) and each well was read four times and averaged.

`O=C1O[C@H]2[C@@H]3OC(=O)c4cc(O)c(O)c(O)c4-c4c(O)c(O)c5oc(=O)c6c(c(O)c(O)c7oc(=O)c4c5c76)-c4c(cc(O)c(O)c4O)C(=O)OC[C@H]3OC(O)[C@@H]2OC(=O)c2cc(O)c(O)c(O)c2-c2c1cc(O)c(O)c2O` (mixture of isomers) [punicalagin, 2,3 hexahydroxydiphenoyl-4,6-gallagylglucose]: the “escape latency in Morris water maze (cognitive learning)” value in assay [1] is recorded as “reducing the time to learn the location of the hidden platform to levels observed in normal non-stressed mice”. Besides, in the assay with normal mice, the “muscle performance and motor skills, latency to fall from rotarod” value was “significantly improve muscle performance and motor skills”.
Turning to `O=c1oc2cc(O)ccc2c2ccc(O)cc12` [urolithin A, 3,8-Dihydroxydibenzo-α-pyrone], the “uncoupled (FCCP) respiration, oxygen consumption AUC” value in assay [2] is “significantly increased uncoupled respiration”. For the same molecule, the “expression of mitochondrial GFP-reporter driven by myo-3 promoter (fluorescence)” value in the assay on C. elegans strain SJ4103 was “induced the expression of the mitochondrial GFP-reporter”.
